Among the data in the OPERA property sets (Mansouri et al. 2018) are logP values, retold here.

As usually defined, the logP is the decadic logarithm of the partition coefficient of the neutral form, usually between octanol and water. A high value points to higher lipophilicity. Compound `Nc1cncc(Cl)n1` showed a log partition coefficient (logP) of 0.95.

The compound `Cc1cncc(Cl)n1` gave a lipophilicity (logP) of 1.04.

In the case of `COc1cncc(Cl)n1`, the log partition coefficient (logP) is 1.65.

`CCOc1cncc(Cl)n1` yielded a logP of 2.22.

Regarding `Fc1cncc(Cl)n1`, the logP stood at 1.16.

In the case of `Clc1cncc(Cl)n1`, the logP is 1.53.

`CCCOc1cncc(Cl)n1` returned a lipophilicity (logP) of 2.71.

In the case of `COC(=O)c1cncc(Cl)n1`, the logP turned out to be 0.47.

Take `NC(=O)c1cncc(Cl)n1`: the logP stood at 0.28.

Compound `CN(C)c1cncc(Cl)n1` yielded a log partition coefficient (logP) of 1.95.

`N#Cc1cncc(Cl)n1` had a logP of 0.79.

Consider `CC(=O)Nc1cncc(Cl)n1`, for which the logP was 1.1.
